Laboratory results: ChEMBL document CHEMBL5705899 (Biochem J, 2014)
The source made the active and inactive calls. No cut-off for these calls is given here.

Experiments:
[1] = target: cGMP-dependent protein kinase 2 (Homo sapiens) (UniProt Q13237); test: Inhibition of human PRKG2 at 1 uM using RBER-GSK3 as substrate in presence of 33P-ATP by ProQinase assay
[2] = target: Phosphatidylinositol 4-phosphate 5-kinase type-1 alpha (Homo sapiens, UniProt Q99755); test: Inhibition of PIP5K1A (unknown origin) using D-myo-PIP as substrate incubated for 45 mins by ADP-Glo assay
[3] = target: Homeodomain-interacting protein kinase 4 (Homo sapiens) (UniProt Q8NE63); test: Inhibition of human HIPK4 at 1 uM using RBER-IRStide as substrate in presence of 33P-ATP by ProQinase assay
[4] = target: Serine/threonine-protein kinase PLK4 (Homo sapiens) (UniProt O00444); test: Inhibition of human SAK at 1 uM using p38-alpha KA as substrate in presence of 33P-ATP by ProQinase assay
Homo sapiens = organism: Homo sapiens; test: Inhibition of recombinant human MKK1 (2 to 393 residues) expressed in Escherichia coli assessed as remaining activity at 1 uM using MBP as substrate incubated for 30 mins in presence of [gamma-33P]ATP by filter binding method relative to control
[5] = target: Serine/threonine-protein kinase tousled-like 2 (Homo sapiens) (UniProt Q86UE8); test: Inhibition of human TLK2 at 1 uM using RB-S6P as substrate in presence of 33P-ATP by ProQinase assay
[6] = target: CDK4/Cyclin D3 (Homo sapiens) (UniProt P11802+P30281); test: Inhibition of human CDK4/CycD3 at 1 uM using RBER-CHKtide as substrate in presence of 33P-ATP by ProQinase assay; type: protein-complex assay
[7] = target: Ephrin type-B receptor 1 (Homo sapiens) (UniProt P54762); test: Inhibition of human EPHB1 at 1 uM using polyEY as substrate in presence of 33P-ATP by ProQinase assay
[8] = target: MAP kinase-activated protein kinase 2 (Homo sapiens) (UniProt P49137); test: Inhibition of recombinant human N-terminal GST/C-terminal Myc-tagged MAPKAPK2 (46 to 400 residues) expressed in Escherichia coli assessed as remaining activity at 1 uM using KKLNRTLSVA as substrate incubated for 30 mins in presence of [gamma-33P]ATP by filter binding method relative to control
[9] = target: Leukocyte tyrosine kinase receptor (Homo sapiens) (UniProt P29376); test: Inhibition of human LTK at 1 uM using polyEY as substrate in presence of 33P-ATP by ProQinase assay
[10] = target: Serine/threonine-protein kinase 16 (Homo sapiens) (UniProt O75716); test: Inhibition of recombinant human N-terminal GST-tagged MPSK1 (1 to 305 residues) expressed in Escherichia coli assessed as remaining activity at 1 uM using RRHYYYDTHTNTYYLRTFGHNTRR as substrate incubated for 30 mins in presence of [gamma-33P]ATP by filter binding method relative to control
[11] = target: MAP kinase-activated protein kinase 3 (Homo sapiens) (UniProt Q16644); test: Inhibition of recombinant human N-terminal GST-tagged MAPKAPK3 (2 to 382 residues) expressed in Escherichia coli assessed as remaining activity at 1 uM using KKLNRTLSVA as substrate incubated for 30 mins in presence of [gamma-33P]ATP by filter binding method relative to control
[12] = target: Macrophage-stimulating protein receptor (Homo sapiens) (UniProt Q04912); test: Inhibition of human RON at 1 uM using polyEY as substrate in presence of 33P-ATP by ProQinase assay
[13] = target: Ephrin type-B receptor 2 (Homo sapiens) (UniProt P29323); test: Inhibition of recombinant human N-terminal His6-tagged EPHB2 (560 to 987 residues) expressed in baculovirus infected Sf21 cells assessed as remaining activity at 1 uM using Poly (Glu,Tyr) as substrate incubated for 30 mins in presence of [gamma-33P]ATP by filter binding method relative to control
[14] = target: Receptor tyrosine-protein kinase erbB-4 (Homo sapiens) (UniProt Q15303); test: Inhibition of recombinant human N-terminal His6-tagged HER4 (706 to 991 residues) expressed in baculovirus infected Sf21 cells assessed as remaining activity at 1 uM using Poly (Glu,Tyr) as substrate incubated for 30 mins in presence of [gamma-33P]ATP by filter binding method relative to control
[15] = target: Dual specificity mitogen-activated protein kinase kinase 1 (Homo sapiens) (UniProt Q02750); test: Inhibition of human MEK1 at 1 uM using ERK2-KR as substrate in presence of 33P-ATP by ProQinase assay
[16] = target: Mitogen-activated protein kinase 13 (Homo sapiens) (UniProt O15264); test: Inhibition of recombinant human GST-tagged P38delta (1 to 365 residues) expressed in Escherichia coli assessed as remaining activity at 1 uM using MBP as substrate incubated for 30 mins in presence of [gamma-33P]ATP by filter binding method relative to control
[17] = target: Angiopoietin-1 receptor (Homo sapiens) (UniProt Q02763); test: Inhibition of recombinant human N-terminal His6-tagged TIE2 (771 to 1124 residues) expressed in baculovirus infected Sf21 cells assessed as remaining activity at 1 uM using Poly(Glu,Tyr) as substrate incubated for 30 mins in presence of [gamma-33P]ATP by filter binding method relative to control
[18] = target: Mitogen-activated protein kinase kinase kinase kinase 2 (Homo sapiens) (UniProt Q12851); test: Inhibition of recombinant human N-terminal His6-tagged GCK (2 to 812 residues) expressed in baculovirus infected Sf21 cells assessed as remaining activity at 1 uM using MBP as substrate incubated for 30 mins in presence of [gamma-33P]ATP by filter binding method relative to control
[19] = target: Serine/threonine-protein kinase D2 (Homo sapiens) (UniProt Q9BZL6); test: Inhibition of human PRKD2 at 1 uM using RBER-CHKtide as substrate in presence of 33P-ATP by ProQinase assay
[20] = target: Mitogen-activated protein kinase kinase kinase 9 (Homo sapiens) (UniProt P80192); test: Inhibition of recombinant human N-terminal GST-tagged MLK1 (132 to 413 residues) expressed in baculovirus infected Sf21 cells assessed as remaining activity at 1 uM using MBP as substrate incubated for 30 mins in presence of [gamma-33P]ATP by filter binding method relative to control
[21] = target: Wee1-like protein kinase (Homo sapiens) (UniProt P30291); test: Inhibition of human WEE1 at 1 uM using poly(Ala,Glu,Lys,Tyr) as substrate in presence of 33P-ATP by ProQinase assay
[22] = target: Mitogen-activated protein kinase 9 (Homo sapiens) (UniProt P45984); test: Inhibition of human JNK2 at 1 uM using ATF2 as substrate in presence of 33P-ATP by ProQinase assay
[23] = target: Aurora kinase A (Homo sapiens) (UniProt O14965); test: Inhibition of human AuroraA at 1 uM using bio-4xCHKT as substrate in presence of 33P-ATP by ProQinase assay

Chain of MAP kinase-activated protein kinase 3 (Homo sapiens) (Q16644 whole entry, looked up, the tested form may be a part): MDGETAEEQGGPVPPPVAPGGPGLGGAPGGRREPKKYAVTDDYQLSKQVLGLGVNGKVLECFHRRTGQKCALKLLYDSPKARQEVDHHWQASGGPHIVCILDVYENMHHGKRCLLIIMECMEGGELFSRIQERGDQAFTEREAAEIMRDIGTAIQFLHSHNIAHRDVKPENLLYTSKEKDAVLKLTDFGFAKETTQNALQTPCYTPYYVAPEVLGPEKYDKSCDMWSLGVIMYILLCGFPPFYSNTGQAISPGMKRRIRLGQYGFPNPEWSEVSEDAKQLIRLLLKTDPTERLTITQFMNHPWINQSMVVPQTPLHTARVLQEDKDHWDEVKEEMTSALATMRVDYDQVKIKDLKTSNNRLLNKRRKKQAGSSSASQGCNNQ
Chain of Receptor tyrosine-protein kinase erbB-4 (Homo sapiens) (Q15303 whole entry, the tested form may be a part): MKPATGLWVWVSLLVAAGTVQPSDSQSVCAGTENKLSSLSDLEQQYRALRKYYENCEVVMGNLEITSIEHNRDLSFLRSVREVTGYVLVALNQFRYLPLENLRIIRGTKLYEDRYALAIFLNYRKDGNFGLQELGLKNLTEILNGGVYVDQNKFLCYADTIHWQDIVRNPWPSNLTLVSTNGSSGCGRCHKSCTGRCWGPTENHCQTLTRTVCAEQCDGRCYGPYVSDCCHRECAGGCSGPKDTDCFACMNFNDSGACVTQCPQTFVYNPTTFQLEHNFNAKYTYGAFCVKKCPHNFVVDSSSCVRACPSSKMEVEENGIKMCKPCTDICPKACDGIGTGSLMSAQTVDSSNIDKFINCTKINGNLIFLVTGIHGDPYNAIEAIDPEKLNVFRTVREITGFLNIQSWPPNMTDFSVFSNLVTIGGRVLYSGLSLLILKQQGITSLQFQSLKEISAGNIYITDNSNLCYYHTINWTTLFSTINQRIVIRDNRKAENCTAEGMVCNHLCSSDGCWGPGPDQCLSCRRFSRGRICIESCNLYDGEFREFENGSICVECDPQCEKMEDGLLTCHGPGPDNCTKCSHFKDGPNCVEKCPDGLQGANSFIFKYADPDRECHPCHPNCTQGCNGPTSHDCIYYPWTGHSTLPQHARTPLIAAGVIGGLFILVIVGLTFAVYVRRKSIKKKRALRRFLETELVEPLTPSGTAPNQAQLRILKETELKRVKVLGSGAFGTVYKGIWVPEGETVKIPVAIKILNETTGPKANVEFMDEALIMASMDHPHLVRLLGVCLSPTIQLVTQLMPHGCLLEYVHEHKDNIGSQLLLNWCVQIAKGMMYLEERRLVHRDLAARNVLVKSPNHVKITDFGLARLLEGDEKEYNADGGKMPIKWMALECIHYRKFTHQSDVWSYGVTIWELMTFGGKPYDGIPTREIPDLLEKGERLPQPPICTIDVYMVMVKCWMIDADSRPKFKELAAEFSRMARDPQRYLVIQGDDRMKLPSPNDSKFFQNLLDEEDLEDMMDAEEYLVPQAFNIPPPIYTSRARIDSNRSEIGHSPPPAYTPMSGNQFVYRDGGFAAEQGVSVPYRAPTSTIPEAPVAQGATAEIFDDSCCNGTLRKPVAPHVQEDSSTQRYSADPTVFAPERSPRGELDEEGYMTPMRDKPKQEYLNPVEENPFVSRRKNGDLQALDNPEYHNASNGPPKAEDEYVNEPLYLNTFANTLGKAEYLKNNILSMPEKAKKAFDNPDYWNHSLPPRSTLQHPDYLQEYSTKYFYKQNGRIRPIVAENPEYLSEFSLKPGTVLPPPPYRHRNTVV
Chain of Serine/threonine-protein kinase 16 (Homo sapiens) (O75716 whole entry, the tested form may be a part): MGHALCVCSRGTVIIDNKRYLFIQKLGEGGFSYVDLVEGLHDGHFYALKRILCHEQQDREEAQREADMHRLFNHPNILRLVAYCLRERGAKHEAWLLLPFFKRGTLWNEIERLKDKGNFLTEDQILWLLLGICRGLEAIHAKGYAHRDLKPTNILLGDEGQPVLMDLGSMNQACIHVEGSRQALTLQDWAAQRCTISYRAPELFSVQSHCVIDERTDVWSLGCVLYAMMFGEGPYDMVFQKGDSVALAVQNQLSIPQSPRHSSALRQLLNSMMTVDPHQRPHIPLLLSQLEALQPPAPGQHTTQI
Chain of Serine/threonine-protein kinase tousled-like 2 (Homo sapiens) (Q86UE8 whole entry, looked up): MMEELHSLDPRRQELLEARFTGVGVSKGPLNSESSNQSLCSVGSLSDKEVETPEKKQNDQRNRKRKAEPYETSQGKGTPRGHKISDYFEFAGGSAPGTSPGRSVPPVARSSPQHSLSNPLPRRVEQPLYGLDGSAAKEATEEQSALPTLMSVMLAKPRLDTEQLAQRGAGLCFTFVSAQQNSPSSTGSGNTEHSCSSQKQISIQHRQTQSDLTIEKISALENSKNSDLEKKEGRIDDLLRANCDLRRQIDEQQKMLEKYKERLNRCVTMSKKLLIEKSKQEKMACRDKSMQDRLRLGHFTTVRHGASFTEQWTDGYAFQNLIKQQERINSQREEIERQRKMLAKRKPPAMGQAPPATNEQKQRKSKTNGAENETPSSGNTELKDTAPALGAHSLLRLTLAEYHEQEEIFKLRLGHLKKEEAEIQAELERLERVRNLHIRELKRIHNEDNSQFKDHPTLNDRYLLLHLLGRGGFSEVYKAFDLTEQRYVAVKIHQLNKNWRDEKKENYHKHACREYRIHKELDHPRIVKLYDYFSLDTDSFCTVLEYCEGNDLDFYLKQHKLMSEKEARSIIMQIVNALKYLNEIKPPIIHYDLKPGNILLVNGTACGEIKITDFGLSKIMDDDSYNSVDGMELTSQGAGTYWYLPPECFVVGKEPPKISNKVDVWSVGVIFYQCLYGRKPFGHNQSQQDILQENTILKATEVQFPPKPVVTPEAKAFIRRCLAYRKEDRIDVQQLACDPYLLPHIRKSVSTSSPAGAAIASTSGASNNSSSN
Chain of Angiopoietin-1 receptor (Homo sapiens) (Q02763 whole entry, the tested form may be a part): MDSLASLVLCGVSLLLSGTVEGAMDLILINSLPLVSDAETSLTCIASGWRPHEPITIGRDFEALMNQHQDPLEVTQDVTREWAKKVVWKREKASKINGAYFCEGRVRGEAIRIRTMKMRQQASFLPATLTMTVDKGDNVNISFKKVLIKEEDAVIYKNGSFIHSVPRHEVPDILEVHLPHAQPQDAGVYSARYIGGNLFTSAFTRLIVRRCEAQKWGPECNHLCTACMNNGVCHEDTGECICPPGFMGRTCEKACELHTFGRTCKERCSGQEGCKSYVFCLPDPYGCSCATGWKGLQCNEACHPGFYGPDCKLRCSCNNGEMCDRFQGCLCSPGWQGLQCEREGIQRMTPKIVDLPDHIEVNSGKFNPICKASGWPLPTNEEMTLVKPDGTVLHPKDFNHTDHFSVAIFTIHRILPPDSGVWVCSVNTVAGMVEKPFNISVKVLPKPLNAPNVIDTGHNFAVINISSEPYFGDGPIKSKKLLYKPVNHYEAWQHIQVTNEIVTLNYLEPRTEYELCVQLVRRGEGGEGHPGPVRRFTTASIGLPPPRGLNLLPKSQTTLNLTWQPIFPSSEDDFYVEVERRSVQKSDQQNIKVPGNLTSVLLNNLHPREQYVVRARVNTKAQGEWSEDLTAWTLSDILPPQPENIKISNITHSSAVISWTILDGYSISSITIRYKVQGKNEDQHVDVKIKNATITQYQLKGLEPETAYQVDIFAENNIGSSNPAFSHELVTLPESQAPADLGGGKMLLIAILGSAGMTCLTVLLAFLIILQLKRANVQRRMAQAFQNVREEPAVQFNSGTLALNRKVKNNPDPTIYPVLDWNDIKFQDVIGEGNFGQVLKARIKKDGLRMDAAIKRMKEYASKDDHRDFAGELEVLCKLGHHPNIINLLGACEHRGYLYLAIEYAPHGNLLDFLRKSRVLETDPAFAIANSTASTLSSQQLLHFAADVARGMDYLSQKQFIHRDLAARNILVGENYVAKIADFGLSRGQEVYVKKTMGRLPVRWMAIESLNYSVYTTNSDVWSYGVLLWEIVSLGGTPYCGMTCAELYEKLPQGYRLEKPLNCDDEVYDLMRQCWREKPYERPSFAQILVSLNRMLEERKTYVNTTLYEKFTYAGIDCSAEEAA
Chain of Ephrin type-B receptor 2 (Homo sapiens) (P29323 whole entry, the tested form may be a part): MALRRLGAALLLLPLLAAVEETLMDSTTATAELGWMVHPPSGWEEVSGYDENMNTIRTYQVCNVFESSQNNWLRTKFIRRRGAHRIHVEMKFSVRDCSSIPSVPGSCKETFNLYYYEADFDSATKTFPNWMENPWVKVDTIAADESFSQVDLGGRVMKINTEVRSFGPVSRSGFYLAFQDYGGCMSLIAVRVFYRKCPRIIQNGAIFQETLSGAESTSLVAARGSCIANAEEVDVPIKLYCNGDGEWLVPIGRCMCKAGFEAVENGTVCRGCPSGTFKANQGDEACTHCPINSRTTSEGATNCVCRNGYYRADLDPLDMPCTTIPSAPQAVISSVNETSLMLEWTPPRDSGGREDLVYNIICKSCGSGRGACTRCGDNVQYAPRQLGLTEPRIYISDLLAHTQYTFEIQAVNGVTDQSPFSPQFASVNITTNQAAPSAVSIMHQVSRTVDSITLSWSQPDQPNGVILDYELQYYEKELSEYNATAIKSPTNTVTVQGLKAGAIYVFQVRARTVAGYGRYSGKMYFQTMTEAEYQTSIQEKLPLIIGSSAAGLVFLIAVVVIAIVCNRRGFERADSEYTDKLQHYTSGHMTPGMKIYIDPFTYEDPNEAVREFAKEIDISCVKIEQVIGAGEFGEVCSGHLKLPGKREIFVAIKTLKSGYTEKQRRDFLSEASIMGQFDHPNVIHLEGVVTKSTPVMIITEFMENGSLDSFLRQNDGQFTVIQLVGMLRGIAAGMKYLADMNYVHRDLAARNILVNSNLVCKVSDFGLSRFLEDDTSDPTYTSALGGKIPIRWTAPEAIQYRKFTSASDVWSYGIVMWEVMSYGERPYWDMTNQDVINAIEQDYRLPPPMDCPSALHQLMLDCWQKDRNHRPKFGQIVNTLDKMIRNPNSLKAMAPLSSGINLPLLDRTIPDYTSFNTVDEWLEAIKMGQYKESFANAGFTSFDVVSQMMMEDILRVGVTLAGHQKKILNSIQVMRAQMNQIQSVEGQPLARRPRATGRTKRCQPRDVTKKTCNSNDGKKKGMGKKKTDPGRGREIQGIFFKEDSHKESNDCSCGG

With `CC(C)(O)CNc1ncc(-c2ccnc(Nc3ccnc(Cl)c3)n2)c(CC2CC2)n1` as the compound, how does the inhibition [1] read?
The inhibition was “inactive”.

What about the IC50 [2] of the same compound?
The IC50 was 11.3 µM.

And the inhibition [3]?
Its inhibition is “inactive”.

And the inhibition [4]?
Its inhibition is “inactive”.

What about the Activity (Homo sapiens) of the same compound?
The Activity was 122%.

What about the inhibition [5] of the same compound?
The inhibition was “inactive”.

And the inhibition [6]?
The inhibition was “inactive”.

And the inhibition [7]?
Its inhibition is “inactive”.

And the Activity [8]?
Its Activity is 110%.

And the inhibition [9]?
Its inhibition is “inactive”.

What about the Activity [10] of the same compound?
Its Activity is 118%.

And the Activity [11]?
The Activity was 115%.

What about the inhibition [12] of the same compound?
The inhibition was “inactive”.

What about the Activity [13] of the same compound?
The Activity was 109%.

And the Activity [14]?
Its Activity is 101%.

What about the inhibition [15] of the same compound?
The inhibition was “inactive”.

And the Activity [16]?
Its Activity is 111%.

And the Activity [17]?
Its Activity is 93%.

And the Activity [18]?
Its Activity is 104%.

And the inhibition [19]?
The inhibition was “inactive”.

What about the Activity [20] of the same compound?
The Activity was 119%.

What about the inhibition [21] of the same compound?
Its inhibition is “inactive”.

What about the inhibition [22] of the same compound?
The inhibition was “inactive”.

And the inhibition [23]?
The inhibition was “inactive”.
